Source: patent US20080275018A1, “ANTIBACTERIAL AMIDE-MACROCYCLES V” (AiCuris GmbH & Co. KG, priority 2005, published 2008)

Assays:
Format in all cases: cell-based, Staphylococcus aureus
S. aureus 133 = assay: Minimum inhibitory concentration (MIC), S. aureus 133; conditions: S. aureus 133
Description: (§1) The minimum inhibitory concentration (MIC) is the minimum concentration of an antibiotic with which the growth of a test microbe is inhibited over 18-24 h. The inhibitor concentration can in these cases be determined by standard microbiological methods (see, for example, The National Committee for Clinical Laboratory Standards. Methods for dilution antimicrobial susceptibility tests for bacteria that grow aerobically; approved standard-fifth edition. NCCLS document M7-A5 [ISBN 1-56238-394-9]. NCCLS, 940 West Valley Road, Suite 1400, Wayne, Pa. 19087-1898 USA, 2000). The test substances are thereby initially provided in 1:2 dilution series into 96-well round-bottom microtiter plates (Greiner) double-concentrated in 50 μl of test medium. The aerobically growing test microbes (e.g. staphylococci and enterococci), which are incubated overnight on Columbia blood agar plates (Becton-Dickinson), are, after resuspension in 0.9% NaCl, adjusted to a microbe count of about 5×10^7 microbes/ml and then diluted 1:150 in cation-adjusted MH medium (test medium). 50 μL of this suspension are pipetted onto the test preparations provided in the microtiter plates. The cultures are incubated at 37° C. for 18-24 hours. For microaerophilically growing microbes (e.g. streptococci), 2% lysed horse blood in the final concentration is added to the medium and the cultures are incubated in the presence of 5% CO2. The lowest substance concentration in each case at which no visible bacterial growth occurs any longer is defined as the MIC and is reported in μg/ml.
(§2) The minimum inhibitory concentration (MIC) is the minimum concentration of an antibiotic with which the growth of a test microbe is inhibited over 18-24 h. The inhibitor concentration can in these cases be determined by standard microbiological methods (see, for example, The National Committee for Clinical Laboratory Standards. Methods for dilution antimicrobial susceptibility tests for bacteria that grow aerobically; approved standard-fifth edition. NCCLS document M7-A5 [ISBN 1-56238-394-9]. NCCLS, 940 West Valley Road, Suite 1400, Wayne, Pa. 19087-1898 USA, 2000). The MIC of the compounds of the invention is determined in the liquid dilution test on the 96-well microtiter plate scale. The bacterial microbes are cultivated in a minimal medium (18.5 mM Na2HPO4, 5.7 mM KH2PO4, 9.3 mM NH4Cl, 2.8 mM MgSO4, 17.1 mM NaCl, 0.033 μg/ml thiamine hydrochloride, 1.2 μg/ml nicotinic acid, 0.003 μg/ml biotin, 1% glucose, 25 μg/ml of each proteinogenic amino acid with the exception of phenylalanine; [H.-P. Kroll; unpublished]) with the addition of 0.4% BH broth (test medium). In the case of Enterococcus faecium L4001, heat-inactivated fetal calf serum (FCS; GibcoBRL, Germany) is added to the test medium in a final concentration of 10%. Overnight cultures of the test microbes are diluted to an OD578 of 0.001 (to 0.01 in the case of enterococci) in fresh test medium, and incubated 1:1 with dilutions of the test substances (1:2 dilution steps) in test medium ([…]). The cultures are incubated at 37° C. for 18-24 hours; enterococci in the presence of 5% CO2.
(§3) The lowest substance concentration in each case at which no visible bacterial growth occurs any longer is defined as the MIC.
(§4) The minimum inhibitory concentration (MIC) is the minimum concentration of an antibiotic with which the growth of a test microbe is inhibited over 18-24 h. The inhibitor concentration can in these cases be determined by standard microbiological methods with modified medium in an agar dilution test (see, for example, The National Committee for Clinical Laboratory Standards. Methods for dilution antimicrobial susceptibility tests for bacteria that grow aerobically; approved standard-fifth edition. NCCLS document M7-A5 [ISBN 1-56238-394-9]. NCCLS, 940 West Valley Road, Suite 1400, Wayne, Pa. 19087-1898 USA, 2000). The bacterial microbes are cultivated on 1.5% agar plates which contain 20% defibrinated horse blood. […]

S. aureus T17 = assay: Minimum inhibitory concentration (MIC), biphenomycin-resistant S. aureus T17
Description: as §1, §2, §3, §4

S. aureus RN4220 = assay: Resistance rate of S. aureus RN4220 on agar containing biphenomycin B; conditions: S. aureus RN4220, agar plate containing 2 μg/ml biphenomycin B (10×MIC), 37° C. overnight
Description: (§5) The S. aureus Strain RN4220BiR^R is isolated in vitro. For this purpose, 100 μl portions of an S. aureus RN4220 cell suspension (about 1.2×10^8 cfu/ml) are plated out on an antibiotic-free agar plate (18.5 mM Na2HPO4, 5.7 mM KH2PO4, 9.3 mM NH4Cl, 2.8 mM MgSO4, 17.1 mM NaCl, 0.033 μg/ml thiamine hydrochloride, 1.2 μg/ml nicotinic acid, 0.003 μg/ml biotin, 1% glucose, 25 μg/ml of each proteinogenic amino acid with the addition of 0.4% BH broth and 1% agarose) and on an agar plate containing 2 μg/ml biphenomycin B (10×MIC), and incubated at 37° C. overnight. Whereas about 1×10^7 cells grow on the antibiotic-free plate, about 100 colonies grow on the antibiotic-containing plate, corresponding to a resistance rate of 1×10^−5. Some of the colonies grown on the antibiotic-containing plate are tested for the biphenomycin B MIC. One colony with an MIC of >50 μM is selected for further use, and the strain is referred to as RN4220Bi^R.

S. aureus RN4220Bi^R = assay: MIC against biphenomycin-resistant S. aureus RN4220Bi^R; conditions: colony grown on the antibiotic-containing plate
Description: as §5

## NC[C@H](O)C[C@@H]1NC(=O)[C@@H](N)Cc2cc(ccc2O)-c2ccc(O)c(c2)C[C@@H](C(=O)O)NC1=O [Biphenomycin B, biphenomycin B, reference compound]
S. aureus 133
  MIC S. aureus 133: <0.03 μ/ml
S. aureus T17; biphenomycin-resistant S. aureus T17
  MIC S. aureus T17: >32 μ/ml
S. aureus T17; colony isolated from kidney of mice treated with biphenomycin B
  MIC of selected colony (strain T17): > 50 µM
S. aureus RN4220
  resistance rate: 1×10^−5
S. aureus RN4220Bi^R
  MIC of selected colony (strain RN4220Bi^R): > 50 µM
